Here are results for 17 compounds from ChEMBL document CHEMBL4229532, “A series of camptothecin prodrugs exhibit HDAC inhibition activity” (Bioorg Med Chem, 2018).

The structures appear in SMILES notation. Activity calls are given as the source filed them.

One data set concerns the target Histone deacetylase 1 (Homo sapiens, UniProt Q13547). The data set is described as follows: Inhibition of recombinant human HDAC1 expressed in baculovirus infected High5 insect cells using Ac-Lys-Tyr-Lys(epsilon-acetyl)-AMC as substrate after 24 hrs by fluorescence assay.
The target of the next data set is Histone deacetylase 3 (Homo sapiens, UniProt O15379). Description: Inhibition of recombinant human HDAC3 expressed in baculovirus infected High5 insect cells using Ac-Lys-Tyr-Lys(epsilon-acetyl)-AMC as substrate after 24 hrs by fluorescence assay.
The target in data set [1] is T1, Protein deacetylase HDAC6 (Homo sapiens, UniProt Q9UBN7).
T1 sequence (Q9UBN7 whole entry): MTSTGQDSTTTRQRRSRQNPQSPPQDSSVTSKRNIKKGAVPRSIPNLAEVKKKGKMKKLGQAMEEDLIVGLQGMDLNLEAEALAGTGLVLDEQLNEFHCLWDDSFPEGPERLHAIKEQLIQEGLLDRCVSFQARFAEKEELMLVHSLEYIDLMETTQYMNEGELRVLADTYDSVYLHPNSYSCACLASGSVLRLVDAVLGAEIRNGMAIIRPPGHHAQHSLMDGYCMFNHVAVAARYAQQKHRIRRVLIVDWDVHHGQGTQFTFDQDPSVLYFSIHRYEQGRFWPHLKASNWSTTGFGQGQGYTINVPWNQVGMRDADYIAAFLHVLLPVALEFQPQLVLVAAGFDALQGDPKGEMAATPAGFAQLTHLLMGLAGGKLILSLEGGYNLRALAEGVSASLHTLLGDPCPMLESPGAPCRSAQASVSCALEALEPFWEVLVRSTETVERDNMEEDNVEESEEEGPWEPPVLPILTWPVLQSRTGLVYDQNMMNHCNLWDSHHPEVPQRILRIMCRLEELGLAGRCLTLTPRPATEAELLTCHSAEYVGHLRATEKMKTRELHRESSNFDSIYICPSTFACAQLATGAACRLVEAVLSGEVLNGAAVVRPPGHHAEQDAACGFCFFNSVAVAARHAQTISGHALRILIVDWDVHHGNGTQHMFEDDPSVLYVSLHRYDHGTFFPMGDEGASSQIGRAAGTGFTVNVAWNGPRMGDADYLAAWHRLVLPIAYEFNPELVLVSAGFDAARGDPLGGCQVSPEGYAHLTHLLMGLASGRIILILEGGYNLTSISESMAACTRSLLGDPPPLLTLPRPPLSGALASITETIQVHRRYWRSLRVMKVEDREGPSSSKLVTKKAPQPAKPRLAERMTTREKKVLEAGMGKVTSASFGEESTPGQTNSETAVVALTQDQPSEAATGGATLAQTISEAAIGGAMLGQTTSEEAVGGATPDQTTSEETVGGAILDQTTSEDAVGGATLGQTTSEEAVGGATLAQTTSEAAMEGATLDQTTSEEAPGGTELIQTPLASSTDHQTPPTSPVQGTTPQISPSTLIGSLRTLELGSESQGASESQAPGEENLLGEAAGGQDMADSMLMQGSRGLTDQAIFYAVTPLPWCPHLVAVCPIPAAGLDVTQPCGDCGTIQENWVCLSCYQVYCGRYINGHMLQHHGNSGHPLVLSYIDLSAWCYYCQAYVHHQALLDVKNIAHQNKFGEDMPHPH
The data set is described as follows: Inhibition of recombinant human HDAC6 expressed in baculovirus infected High5 insect cells using Boc-Lys (epsilon-acetyl)-AMC as substrate after 3 hrs by fluorescence assay.

Another data set concerns A549. The data set is described as follows: Antiproliferative activity against human A549 cells after 72 hrs by SRB assay. Type of data set: functional, cell-based. The following applies: A549, 72 h. For orientation: Sulforhodamine B stains cellular protein and so reports cell mass.
In data set [2] the target is T2, Protein deacetylase HDAC6 (Homo sapiens) (UniProt Q9UBN7).
T2 sequence (whole entry): T1 sequence (Q9UBN7 whole entry)
Description: Inhibition of HDAC6 in human A549 cells assessed as increase in acetylated tubulin levels at 0.03 to 3 uM after 24 hrs by Western blot analysis. Format: cell-based. (Immunoblotting shows a protein as a band on a membrane.)

The target in data set [3] is T2, Protein deacetylase HDAC6 (Homo sapiens). The data set is described as follows: Inhibition of HDAC6 in human HCT116 cells assessed as increase in acetylated tubulin levels at 0.03 to 3 uM after 24 hrs by Western blot analysis. Type of data set: cell-based.
The test system of another data set is HCT-116. Description: Antiproliferative activity against human HCT116 cells after 72 hrs by SRB assay. Type of data set: functional, cell-based. The following applies: HCT-116, 72 h.
Data set [4] can be described thus: Stability of the compound in PBS at pH 6 at 50 uM by HPLC analysis. Format: physicochemical. The note with it: buffer, pH 6, 50 µM.
Data set [5] can be described thus: Half life in PBS at pH 7.4 at 50 uM by HPLC analysis. Type of data set: physicochemical.
Data set [6] can be described thus: Half life in human plasma at 50 uM by HPLC analysis. Format: ADME, cell-free.
Data set [7] in a line: Half life in mouse plasma at 50 uM by HPLC analysis. Format: ADME, cell-free.
In data set [8] the target is T2, Protein deacetylase HDAC6 (Homo sapiens). Description: Inhibition of HDAC6 in human HCT116 cells assessed as increase in acetylated tubulin levels at 1 to 10 uM after 24 hrs by Western blot analysis. Format: cell-based.
The target is the same in data set [9]. Description: Inhibition of HDAC6 in human A549 cells assessed as increase in acetylated tubulin levels at 1 to 10 uM after 24 hrs by Western blot analysis. Type of data set: cell-based.
The nature of data set [10]: Stability of the compound in PBS at pH 7.4 at 50 uM by HPLC analysis. Type of data set: physicochemical. The following applies: buffer, pH 7.4, 50 µM.
Data set [11] is described as follows: Stability of the compound in mouse plasma at 50 uM by HPLC analysis. Type of data set: ADME, cell-free.
Data set [12] is described as follows: Stability of the compound in human plasma at 50 uM by HPLC analysis. Format: ADME, cell-free.
Data set [13] deals with T2, Protein deacetylase HDAC6 (Homo sapiens). The data set is described as follows: Inhibition of HDAC6 in human A549 cells assessed as increase in acetylated tubulin levels at 0.3 to 30 uM after 24 hrs by Western blot analysis. Type of data set: cell-based.
The target is the same in data set [14]. Description: Inhibition of HDAC6 in human HCT116 cells assessed as increase in acetylated tubulin levels at 0.3 to 30 uM after 24 hrs by Western blot analysis. Type of data set: cell-based.

Chain of Histone deacetylase 1 (Q13547 whole entry): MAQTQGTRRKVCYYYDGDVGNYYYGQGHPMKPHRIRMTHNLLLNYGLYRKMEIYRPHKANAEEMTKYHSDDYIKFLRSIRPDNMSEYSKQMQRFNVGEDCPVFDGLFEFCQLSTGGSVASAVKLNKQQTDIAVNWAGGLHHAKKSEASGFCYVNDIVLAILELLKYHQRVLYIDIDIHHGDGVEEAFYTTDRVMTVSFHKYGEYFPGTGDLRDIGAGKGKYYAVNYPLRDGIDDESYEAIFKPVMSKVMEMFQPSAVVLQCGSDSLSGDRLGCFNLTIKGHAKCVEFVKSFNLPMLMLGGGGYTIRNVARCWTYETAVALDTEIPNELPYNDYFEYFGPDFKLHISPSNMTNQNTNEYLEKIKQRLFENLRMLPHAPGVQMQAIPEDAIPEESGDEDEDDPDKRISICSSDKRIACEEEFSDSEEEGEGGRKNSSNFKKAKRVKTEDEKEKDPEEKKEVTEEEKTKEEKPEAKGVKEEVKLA
Chain of Histone deacetylase 3 (O15379 whole entry): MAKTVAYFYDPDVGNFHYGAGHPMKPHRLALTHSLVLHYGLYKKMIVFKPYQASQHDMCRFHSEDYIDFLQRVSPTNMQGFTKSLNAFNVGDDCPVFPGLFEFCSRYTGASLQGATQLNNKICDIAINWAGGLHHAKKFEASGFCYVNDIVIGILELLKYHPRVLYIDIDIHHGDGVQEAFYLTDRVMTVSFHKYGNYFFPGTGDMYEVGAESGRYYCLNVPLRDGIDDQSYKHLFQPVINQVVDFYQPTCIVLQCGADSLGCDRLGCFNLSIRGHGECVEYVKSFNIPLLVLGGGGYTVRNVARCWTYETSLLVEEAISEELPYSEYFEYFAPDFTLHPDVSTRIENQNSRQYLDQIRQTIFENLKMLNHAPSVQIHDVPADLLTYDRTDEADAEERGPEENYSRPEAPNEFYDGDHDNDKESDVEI

By IC50 is commonly meant the midpoint of a concentration-inhibition curve. With `CCc1c2c(nc3ccc(OC(=O)N4CCN(C(=O)CCCCCCCCCC(=O)NO)CC4)cc13)-c1cc3c(c(=O)n1C2)COC(=O)[C@]3(O)CC`, the IC50 on Histone deacetylase 1 is 17400 nM; on Histone deacetylase 3 it was 24600 nM; in data set [1] it was 4700 nM; with A549, 6730 nM; with HCT-116, 3220 nM. The inhibition entry in data set [2] and in data set [3] was “Active” throughout.
For the compound `CCc1c2c(nc3ccc(O)cc13)-c1cc3c(c(=O)n1C2)COC(=O)[C@@]3(CC)OC(=O)CCCCCCCCCCC(=O)NO`, the figures for the IC50 (on Histone deacetylase 1; on Histone deacetylase 3; in data set [1]) were 12600 nM, 11800 nM and 1070 nM, respectively.
As for `CCc1c2c(nc3ccc(O)cc13)-c1cc3c(c(=O)n1C2)COC(=O)[C@@]3(CC)OC(=O)CCCCCCCCCC(=O)NO`, the half-maximal inhibitory concentration (IC50) is 6180 nM at Histone deacetylase 1, 5330 nM at Histone deacetylase 3 and 610 nM in data set [1].
Broadly, the half-life is the time needed for the level to fall by half in the phase considered. Higher therefore signals slow decline. `CCc1c2c(nc3ccc(O)cc13)-c1cc3c(c(=O)n1C2)COC(=O)[C@@]3(CC)OC(=O)CNC(=O)CCCCCCC(=O)NO`: the half-maximal inhibitory concentration (IC50) on Histone deacetylase 1 came to 1960 nM; on Histone deacetylase 3, 1600 nM; in data set [1], 860 nM; with A549, 138 nM; in the data set on HCT-116, 30.5 nM. Further, the Stability result in data set [4] was “Unstable”. In addition, the half-life at 50 µM was 5 h in [5], 6 h in data set [6] and 1 h in data set [7]. For the same compound, the inhibition entry in data set [8] and in data set [9] was “inactive” in each case.
`CCc1c2c(nc3ccc(O)cc13)-c1cc3c(c(=O)n1C2)COC(=O)[C@@]3(CC)OC(=O)CCCCCC(=O)NO`: the IC50 on Histone deacetylase 1 came out at 110 nM; on Histone deacetylase 3 it was 100 nM; in data set [1], 220 nM; with A549 it was 245 nM; in the data set on HCT-116, 46.2 nM. The inhibition entry in data set [8] and in [9] was “inactive” each time.
On to `CCc1c2c(nc3ccc(OC(=O)N4CCN(C(=O)CCCCCCCCCCC(=O)NO)CC4)cc13)-c1cc3c(c(=O)n1C2)COC(=O)[C@]3(O)CC`, for which the IC50 is 11000 nM at Histone deacetylase 1, 27300 nM on Histone deacetylase 3 and 3570 nM in data set [1].
With `CCc1c2c(nc3ccc(O)cc13)-c1cc3c(c(=O)n1C2)COC(=O)[C@@]3(CC)OC(=O)CNC(=O)CCCCCCC(=O)O`, the IC50 turned out to be 27700 nM on Histone deacetylase 1; 34900 nM on Histone deacetylase 3; 8660 nM in data set [1]; 111 nM with A549; 23.2 nM in the data set with HCT-116. In addition, the inhibition entry in data set [8] and in [9] was “Active” throughout.
In the case of `CCc1c2c(nc3ccc(OC(=O)N4CCN(C(=O)CCCCCCCCC(=O)NO)CC4)cc13)-c1cc3c(c(=O)n1C2)COC(=O)[C@]3(O)CC`, the IC50 at Histone deacetylase 1 was 30100 nM; at Histone deacetylase 3 it was 25400 nM; in data set [1] it was 7020 nM.
Take `CCc1c2c(nc3ccc(O)cc13)-c1cc3c(c(=O)n1C2)COC(=O)[C@@]3(CC)OC(=O)CCCCCCCC(=O)NO`: the IC50 at Histone deacetylase 1 worked out at 970 nM; on Histone deacetylase 3, 990 nM; in [1] it was 210 nM.
In the case of `CCc1c2c(nc3ccc(OC(=O)N4CCN(C(=O)CCCCCC(=O)NO)CC4)cc13)-c1cc3c(c(=O)n1C2)COC(=O)[C@]3(O)CC`, the IC50 on Histone deacetylase 1 is 13600 nM; on Histone deacetylase 3, 12000 nM.
Turning to `CCc1c2c(nc3ccc(O)cc13)-c1cc3c(c(=O)n1C2)COC(=O)[C@@]3(CC)OC(=O)CCCCCCCCC(=O)NO`, the IC50 is 710 nM on Histone deacetylase 1, 780 nM at Histone deacetylase 3 and 320 nM in data set [1].
The corresponding values for `CCc1c2c(nc3ccc(OC(=O)N4CCN(C(=O)CCCCCCCC(=O)NO)CC4)cc13)-c1cc3c(c(=O)n1C2)COC(=O)[C@]3(O)CC` are 19700 nM, 18800 nM and 9040 nM.
For `CCc1c2c(nc3ccc(O)cc13)-c1cc3c(c(=O)n1C2)COC(=O)[C@@]3(CC)OC(=O)CCCCCCC(=O)O`, the half-inhibitory concentration (IC50) is 27100 nM on Histone deacetylase 1; 37200 nM at Histone deacetylase 3; 6940 nM in data set [1]; 129 nM in the data set on A549; 29 nM with HCT-116. In addition, the inhibition entry in [8] and in data set [9] was “Active” each time.
Turning to `CCc1c2c(nc3ccc(OC(=O)N4CCN(C(=O)CCCCCCC(=O)NO)CC4)cc13)-c1cc3c(c(=O)n1C2)COC(=O)[C@]3(O)CC`, the IC50 on Histone deacetylase 1 stood at 5570 nM; at Histone deacetylase 3 it was 9320 nM; in [1], 12200 nM; with A549 it was 7230 nM; with HCT-116, 6240 nM. In addition, the Stability entry in data set [10] is reported as “Stable”; in data set [4], “Stable”; in data set [11], “Unstable”; in data set [12] it was “Stable”. The inhibition result in data set [13] and in data set [14] was “Active” each time.
`CCc1c2c(nc3ccc(O)cc13)-c1cc3c(c(=O)n1C2)COC(=O)[C@]3(O)CC` [7-ETHYL-10-HYDROXYCAMPTOTHECIN]: the IC50 in the data set on A549 is 1.62 to 7.33 nM; with HCT-116, 0.78 nM.
As to `CCc1c2c(nc3ccc(OC(=O)N4CCC(N5CCCCC5)CC4)cc13)-c1cc3c(c(=O)n1C2)COC(=O)[C@]3(O)CC` [IRINOTECAN], the values for the IC50 with A549 and in the data set on HCT-116 were 1880 nM and 1630 nM, respectively.
With `CCc1c2c(nc3ccc(O)cc13)-c1cc3c(c(=O)n1C2)COC(=O)[C@@]3(CC)OC(=O)CCCCCCC(=O)NO`, the IC50 on Histone deacetylase 1 stood at 90 nM; at Histone deacetylase 3 it was 100 nM; in data set [1], 250 nM; in the data set with A549, 612 nM; in the data set with HCT-116, 88 nM. Further, the Stability entry in data set [10] is “Stable”; in data set [4], “Stable”; in data set [11], “Unstable”; in [12], “Stable”. Also, the inhibition result in data set [8] and in data set [9] was “inactive” throughout.
